Measured values: ChEMBL document CHEMBL1136123, “3,5,6-Trisubstituted naphthostyrils as CDK2 inhibitors” (Bioorg Med Chem Lett, 2003)

Experiments:
[1] = target: Cyclin-dependent kinase 2 (Homo sapiens, UniProt P24941); experiment: In vitro inhibition of Cyclin-dependent kinase 2
RKO = experiment: Inhibitory concentration against human colon cancer (RKO) cell line proliferation; type: functional, cell-based
MDA-MB-435 = experiment: Inhibitory concentration against human breast carcinoma cell line proliferation; type: functional, cell-based
[2] = Inhibition of blocked progression of G0 synchronized cell into S phase using G1-S cell cycle progression assay; type: functional

Row | Structure (SMILES) | IC50 [1] | IC50 (RKO) | IC50 (MDA-MB-435) | IC50 [2]
1 | O=C1Nc2ccc(F)c3c(OCCCO)cc(-c4ccc[nH]4)c1c23 | 18 nM |  |  | 
2 | O=C1Nc2ccc(F)c3c(SC[C@@H]4CCCN4)cc(-c4ccc[nH]4)c1c23 | 18 nM | 60 nM | 210 nM | 
3 | CCN(CC)CCNc1cc(-c2ccc[nH]2)c2c3c(ccc(F)c13)NC2=O | 294 nM |  |  | 
4 | NCCSc1cc(-c2ccc[nH]2)c2c3c(ccc(F)c13)NC2=O | 3 nM | 100 nM | 310 nM | 810 nM
5 | O=C1Nc2ccc(F)c3c(S(=O)(=O)CCO)cc(-c4ccc[nH]4)c1c23 | 15 nM | 1200 nM | 3200 nM | 
6 | NCCOc1cc(-c2ccc[nH]2)c2c3c(ccc(F)c13)NC2=O | 12 nM | 110 nM | 380 nM | 910 nM
7 | NCCCc1cc(-c2ccc[nH]2)c2c3c(ccc(F)c13)NC2=O | 7 nM |  |  | 
8 | O=C1Nc2ccc(F)c3c(S[C@H]4CCNC4)cc(-c4ccc[nH]4)c1c23 | 5 nM | 70 nM | 120 nM | 
9 | NCCNc1cc(-c2ccc[nH]2)c2c3c(ccc(F)c13)NC2=O |  |  |  | 1490 nM
10 | NCCCNc1cc(-c2ccc[nH]2)c2c3c(ccc(F)c13)NC2=O | 48 nM | 120 nM | 70 nM | 2040 nM
11 | Cc1cc(-c2ccc[nH]2)c2c3c(ccc(F)c13)NC2=O | 376 nM |  |  | 
12 | CC(C)Cc1cc(-c2ccc[nH]2)c2c3c(ccc(F)c13)NC2=O | 124 nM |  |  | 
13 | CC(=O)OCCCOc1cc(-c2ccc[nH]2)c2c3c(ccc(F)c13)NC2=O | > 1000 nM |  |  | 
14 | NCC[S+]([O-])c1cc(-c2ccc[nH]2)c2c3c(ccc(F)c13)NC2=O (centres undefined) | 28 nM | 420 nM | 1210 nM | 1870 nM
15 | CCOc1cc(-c2ccc[nH]2)c2c3c(ccc(F)c13)NC2=O | 77 nM |  |  | 
16 | CC(C)(N)CNc1cc(-c2ccc[nH]2)c2c3c(ccc(F)c13)NC2=O | 65 nM | 110 nM | 160 nM | 1670 nM
17 | CC(C)(C)OC(=O)NCCNc1cc(-c2ccc[nH]2)c2c3c(ccc(F)c13)NC2=O | 5500 nM |  |  | 
18 | N#CCCc1cc(-c2ccc[nH]2)c2c3c(ccc(F)c13)NC2=O | 5 nM |  |  | 
19 | COc1cc(-c2ccc[nH]2)c2c3c(ccc(F)c13)NC2=O | 18 nM | 750 nM | 890 nM | 7100 nM
20 | CCc1cc(-c2ccc[nH]2)c2c3c(ccc(F)c13)NC2=O | 72 nM |  |  | 
21 | NCCS(=O)(=O)c1cc(-c2ccc[nH]2)c2c3c(ccc(F)c13)NC2=O | 23 nM | 430 nM | 1080 nM | 
22 | O=C1Nc2ccc(F)c3c(NCCO)cc(-c4ccc[nH]4)c1c23 | 54 nM | 740 nM | 620 nM | 2390 nM
23 | O=C1Nc2ccc(F)c3ccc(-c4ccc[nH]4)c1c23 | 204 nM | 5950 nM | 2280 nM | > 30000 nM
24 | CC(=O)NCCNc1cc(-c2ccc[nH]2)c2c3c(ccc(F)c13)NC2=O | 127 nM |  |  | 
25 | O=C1Nc2ccc(F)c3c(SCCO)cc(-c4ccc[nH]4)c1c23 | 14 nM | 1480 nM | 1730 nM | 2740 nM
26 | O=C1Nc2ccc(F)c3c(OCCO)cc(-c4ccc[nH]4)c1c23 | 62 nM | 500 nM | 580 nM | 10900 nM
